27 compounds from patent US20160331708A1 (priority 2014, published 2016) can be followed below.

≈ marks a conversion by molar mass, not a printed value. Where “and” joins values, the source holds several entries; their conditions need not be identical. Identical values can stand only once. Counter-ions that a name gives are not always drawn. Like-named read-outs stand apart in the source and are kept apart here. Numbered stars: 1 amine (or outer) side, 2 acyl side, 3 side chain; on linkers, the order of the positions; unused ones are H or OH. Bridge positions count the residues as written; N and C are the ends. Square brackets hold non-standard residues; d marks the D form. Peptide text beside a SMILES is read from it. I, II: the chains in the order shown. Actinocin(9to1) = Cc1c2oc3c(C)ccc(C(=O)[*:1])c3nc-2c(C(=O)[*:2])c(N)c1=O; NMeV = CN[C@H](C(=O)O)C(C)C; Sar = CNCC(=O)O A value given as a limit tells only on which side of the number the result lay.

The test system of this experiment is Bacillus subtilis 168. Nature of the experiment: Antibiotic MIC tests in microtiter plates. The conditions noted are these: for effect on the MIC of streptomycin: related compounds tested for synergistic effect with streptomycin (text, Table 4 title); for MIC with anthranilic acid (2.2 mM): antibiotic against B. subtilis in the presence of anthranilic acid (2.2 mM); for Effect: effect of anthranilic acid (2.2 mM) on MIC of the antibiotic against B. subtilis; for effect on MIC value when combined with anthranilic acid: anthranilic acid at around 2 mM, B. subtilis.

[1] abbreviates: Bacillus subtilis, 168, compound alone (Table 4).
Setting [2] is: antibiotic alone against B. subtilis (Table 2).
The mark [3] stands for this setting: antibiotic alone against B. subtilis (Table 3).
[4] abbreviates: Bacillus subtilis, 168, antibiotic alone against B. subtilis (Table 2).
The mark [5] stands for this setting: Bacillus subtilis, 168, antibiotic alone against B. subtilis (Table 3).

As for `O=C(O)[C@@H]1CCCN1` (racemic) [D,L-Proline], the MIC (compound alone (Table 4)) is >750 µg/mL.

Turning to `O=C(O)c1cccc(O)c1O` [2,3-dihydroxybenzoic acid], the “effect on the MIC of streptomycin” value is “duplication of the MIC value”. Under setting [1], this compound yielded an MIC of 750 µg/mL (≈ 4870 µM).

For the compound `Nc1cc(N)cc(C(=O)O)c1` [3,5-diaminobenzoic acid], the MIC under setting [1] is > 750 µg/mL.

Under setting [1], `Nc1cccc(C(=O)O)c1` [3-aminobenzoic acid] had an MIC of 750 µg/mL (≈ 5470 µM).

Under setting [1], `Nc1ccc(C(=O)O)cc1` [4-aminobenzoic acid] showed an MIC of 750 µg/mL (≈ 5470 µM).

Take `Cc1c2oc3c(C)ccc(C(=O)N[C@@H]4C(=O)N[C@H](C(C)C)C(=O)N5CCC[C@H]5C(=O)N(C)CC(=O)N(C)[C@@H](C(C)C)C(=O)O[C@@H]4C)c3nc-2c(C(=O)N[C@@H]2C(=O)N[C@H](C(C)C)C(=O)N3CCC[C@H]3C(=O)N(C)CC(=O)N(C)[C@@H](C(C)C)C(=O)O[C@@H]2C)c(N)c1=O` [Actinomycin D] (I: T[dV]P[Sar][NMeV] / II: T[dV]P[Sar][NMeV]; ester I:1-I:C, II:1-II:C; linker I:N-II:N via Actinocin(9to1)): the “MIC with anthranilic acid (2.2 mM)” value was found to be 0.156 µg/mL and the Effect result is reported as “No effect”. In addition, the MIC under setting [2] was determined as 0.156 µg/mL (≈ 0.124 µM). For the same compound, the MIC under setting [3] was 0.156 µg/mL (≈ 0.124 µM).

Regarding `CC1(C)S[C@@H]2[C@H](NC(=O)[C@H](N)c3ccccc3)C(=O)N2[C@H]1C(=O)O` [Ampicillin (sodium salt), Ampicillin], the MIC under setting [4] was 0.0153 µg/mL.

With `NC(=O)c1ccccc1N` [Anthranilic acid amide], the MIC under setting [1] is > 1500 µg/mL.

Take `CN[C@@H]1[C@@H](O[C@H]2O[C@H](CO)[C@@H](N)[C@H](O)[C@H]2O)OC2C[C@@H](N)[C@@H](O[C@H]3[C@H](O)[C@@H](O)[C@H](N)C[C@@H]3N)OC2[C@@H]1O` (stereo partly shown) [Apramycin (sulfate), Apramycin]: the “MIC with anthranilic acid (2.2 mM)” value was determined as 1.953 µg/mL and the Effect entry is “No effect”. Under setting [4], this compound had an MIC of 1.95 µg/mL. The MIC under setting [5] came out at 1.95 µg/mL.

Take `Oc1ccccc1O` [Catechol]: the “effect on the MIC of streptomycin” value was “duplication of the MIC value”. For the same compound, the MIC under setting [1] came out at 750 µg/mL (≈ 6810 µM).

Take `CC1=C(C(=O)O)N2C(=O)[C@@H](NC(=O)[C@H](N)c3ccccc3)[C@H]2SC1` [Cephalexin (1H2O), Cephalexin]: the Effect result is listed as “Lower MIC”. Moreover, the MIC under setting [4] worked out at 0.122 µg/mL (≈ 0.351 µM). Further, the MIC under setting [5] was 0.122 µg/mL (≈ 0.351 µM).

On to `O=C(N[C@H](CO)[C@H](O)c1ccc([N+](=O)[O-])cc1)C(Cl)Cl` [Chloramphenicol], for which the “MIC with anthranilic acid (2.2 mM)” value was determined as 125 µg/mL and the Effect entry was “No effect”. Also, the MIC under setting [4] worked out at 125 µg/mL (≈ 387 µM). Also, the MIC under setting [5] was determined as 125 µg/mL (≈ 387 µM).

In the case of `CCC[C@@H]1C[C@@H](C(=O)N[C@@H]([C@H]2O[C@H](SC)[C@H](O)[C@@H](O)[C@H]2O)[C@H](C)Cl)N(C)C1` [Clindamycin (HCl), Clindamycin], the “MIC with anthranilic acid (2.2 mM)” value was determined as 0.244 µg/mL. Moreover, under setting [4], the MIC came to 0.488 µg/mL. This compound had an MIC under setting [5] of 0.488 µg/mL.

Under setting [4], `CC[C@H]1OC(=O)[C@H](C)[C@@H](O[C@H]2C[C@@](C)(OC)[C@@H](O)[C@H](C)O2)[C@H](C)[C@@H](O[C@@H]2O[C@H](C)C[C@H](N(C)C)[C@H]2O)[C@](C)(O)C[C@@H](C)C(=O)[C@H](C)[C@@H](O)[C@]1(C)O` [Erythromycin] returned an MIC of 0.122 µg/mL (≈ 0.166 µM).

Turning to `NC[C@H]1O[C@H](O[C@H]2[C@H](O)[C@@H](O[C@H]3O[C@H](CO)[C@@H](O)[C@H](N)[C@H]3O)[C@H](N)C[C@@H]2N)[C@H](O)[C@@H](O)[C@@H]1O` [Kanamycin (sulfate), Kanamycin], the “MIC with anthranilic acid (2.2 mM)” value was found to be 31.2 µg/mL. The compound further yielded an MIC under setting [4] of 125 µg/mL. This compound also yielded an MIC under setting [5] of 125 µg/mL.

Consider `O=C1O[C@H]([C@@H](O)CO)C(O)=C1O` [L-Ascorbic acid (sodium salt), L-Ascorbic acid], for which the MIC under setting [1] was > 750 µg/mL.

Consider `O=C(O)[C@@H]1CCCN1` [L-Proline], for which the MIC under setting [1] was > 1500 µg/mL.

For the compound `CCn1cc(C(=O)O)c(=O)c2ccc(C)nc21` [Nalidixic acid], under setting [4], the MIC is 3.1 µg/mL (≈ 13.3 µM).

As for `CC1(C)S[C@@H]2[C@H](NC(=O)Cc3ccccc3)C(=O)N2[C@H]1C(=O)[O-].[Na+]` [Penicillin G (sodium salt), Penicillin G], the “effect on MIC value when combined with anthranilic acid” value (shortened to “effect on MIC value when combined”) is recorded as “decreased”, the “MIC with anthranilic acid (2.2 mM)” value stood at 0.0031 µg/mL and the Effect entry was “Lower MIC”. The compound also gave an MIC under setting [2] of 0.0062 µg/mL. The MIC under setting [3] amounted to 0.0062 µg/mL.

Regarding `CO[C@H]1/C=C/O[C@@]2(C)Oc3c(C)c(O)c4c(O)c(c(/C=N/N5CCN(C)CC5)c(O)c4c3C2=O)NC(=O)/C(C)=C\C=C\[C@H](C)[C@H](O)[C@@H](C)[C@@H](O)[C@@H](C)[C@H](OC(C)=O)[C@@H]1C` [Rifampin], the “MIC with anthranilic acid (2.2 mM)” value is 0.0122 µg/mL and the Effect result is “No effect”. The same compound registered an MIC under setting [4] of 0.0122 µg/mL (≈ 0.0148 µM). This compound yielded an MIC under setting [5] of 0.0122 µg/mL (≈ 0.0148 µM).

Turning to `[H]/N=C(/N)N[C@H]1[C@H](O)[C@@H](O)[C@H](O[C@@H]2O[C@@H](C)[C@](O)(C=O)[C@H]2O[C@@H]2O[C@@H](CO)[C@H](O)[C@@H](O)[C@@H]2NC)[C@@H](N/C(N)=N\[H])[C@@H]1O` [Streptomycin (sulfate), Streptomycin], the “effect on MIC value when combined” value is reported as “decreased”, the “MIC with anthranilic acid (2.2 mM)” value was found to be 5 µg/mL and the Effect result is recorded as “Lower MIC”. Further, under “75 μg/μl anthranilate”, the MIC of streptomycin is 15000 µg/mL and the “reduction of MIC of streptomycin” value is on record as 50%. The same compound yielded an MIC under setting [4] of 31.2 µg/mL. For the same compound, under setting [5], the MIC is 31.2 µg/mL. Under setting [1], this compound displayed an MIC of 31.2 µg/mL. Besides, the MIC (Bacillus subtilis, 168, read-out: MIC value of streptomycin, Bacillus subtilis, no anthranilic acid (FIG. 3)) was determined as 31.2 µg/mL. Where the note is “Bacillus subtilis, 168, read-out: MIC value of streptomycin, at 300 μg/ml anthranilic acid (FIG. 3)”, the MIC is 5 µg/mL. The “MIC value of streptomycin” value (Bacillus subtilis, no anthranilic acid (FIG. 3)) is 30 µg/mL and 31.25 ± 0.05 µg/mL. In addition, under “anthranilate at concentrations of 300 μg/μl and higher”, the “reduction in the MIC of streptomycin” value was “six-fold”. Besides, under “anthranilic acid about 50 μg/ml in the culture”, the “MIC value of Streptomycin reduced by a factor” value stood at 2. For the same compound, the “MIC value of Streptomycin reduced by a factor” value (anthranilic acid about 150 μg/ml in the culture) worked out at 3. The “MIC value of Streptomycin reduced by a factor” value (anthranilic acid about 300 μg/ml in the culture) stood at 6. Besides, the “decrease of streptomycin MIC (times)” value (combined with anthranilic acid, concentration dependent) is listed as “up to 6 times”.

In the case of `CN[C@H](CC(C)C)C(=O)N[C@H]1C(=O)N[C@@H](CC(N)=O)C(=O)N[C@H]2C(=O)N[C@H]3C(=O)N[C@H](C(=O)N[C@H](C(=O)O)c4cc(O)cc(O)c4-c4cc3ccc4O)[C@H](O)c3ccc(c(Cl)c3)Oc3cc2cc(c3O[C@@H]2O[C@H](CO)[C@@H](O)[C@H](O)[C@H]2O[C@H]2C[C@](C)(N)[C@H](O)[C@H](C)O2)Oc2ccc(cc2Cl)[C@H]1O` [Vancomycin (HCl), Vancomycin], the “effect on MIC value when combined” value is listed as “No synergistic effect”, the “MIC with anthranilic acid (2.2 mM)” value was 0.156 µg/mL and the Effect entry is “No effect”. The MIC (Bacillus subtilis, 168) was found to be 0.156 µg/mL. The same compound had an MIC under setting [3] of 0.156 µg/mL.

Regarding Actinomycin C, the “effect on MIC value when combined” value is “decreased”, the “MIC with anthranilic acid (2.2 mM)” value amounted to 0.039 µg/mL and the Effect result is given as “Lower MIC”. For the same compound, the MIC under setting [2] was 0.078 µg/mL. This compound gave an MIC under setting [3] of 0.078 µg/mL.

In the case of Actinomycin C2, under setting [2], the MIC was found to be 0.25 µg/mL.

Regarding Benzoic acid, the MIC (compound alone (Table 4)) was >750 µg/mL.

Gentamycin [Gentamycin (sulfate)]: the “effect on MIC value when combined” value is reported as “decreased”, the “MIC with anthranilic acid (2.2 mM)” value turned out to be 0.625 µg/mL and the Effect result is “Lower MIC”. Besides, the MIC under setting [2] came to 1.25 µg/mL. Under setting [3], this compound gave an MIC of 1.25 µg/mL.

For Neomycin [Neomycin (sulfate)], the “effect on MIC value when combined” value is given as “decreased”, the “MIC with anthranilic acid (2.2 mM)” value was 15.6 µg/mL and the Effect entry is “Lower MIC”. Further, under setting [2], the MIC was found to be 62.5 µg/mL. Under setting [3], this compound showed an MIC of 62.5 µg/mL.
